From PubChem BioAssay (NCI)
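Test compounds were applied to cells in 96-well plates for 48 hours at 5 doses. At the GI50, growth is halved. The concentration for full growth arrest is given as TGI.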

Columns and labels:
Test in all cases: DTP human tumour cell line panel, 48 h
[1] = system: OVCAR-8 ovarian
[2] = system: KM12 colon
[3] = system: NCI-H23 lung
[4] = system: SR leukemia
[5] = system: SN12C renal
[6] = system: HOP-92 NSCLC
[7] = system: HOP-62 NSCLC
[8] = system: EKVX NSCLC
[9] = system: NCI-H226 lung
[10] = system: RPMI-8226 leukemia

For `CCOc1ccc([C@@H]2[C@@H](Oc3ccccc3)C(=O)N2c2cc(OC)c(OC)c(OC)c2)cc1`, the GI50 [1] was 0.0463 µM, the TGI [1] was greater than 100 µM and the GI50 [2] was 52.5 nM. It also gave a TGI [2] greater than 100 µM, a GI50 [3] of 467 nM and a TGI [3] greater than 100 µM. The GI50 [4] was 0.0483 µM, the TGI [4] was greater than 100 µM and the GI50 [5] was 263 nM. The TGI [5] was greater than 100 µM, the GI50 [6] was 642 nM and the TGI [6] was greater than 100 µM. The GI50 [7] was 58.6 nM, the TGI [7] was greater than 100 µM and the GI50 [8] was 93.7 nM. The TGI [8] was greater than 100 µM, the GI50 [9] was 1130 nM and the TGI [9] was greater than 100 µM. It also gave a GI50 [10] of 0.0486 µM and a TGI [10] greater than 100 µM.

Work on `NC(N)=NS(=O)(=O)c1ccc(NCc2c3ccccc3nc3ccccc23)cc1` yielded a TGI [1] of 53.8 µM, a TGI [2] of 70.1 µM and a TGI [3] of 13.2 µM. For the same compound, the TGI [4] was 12.6 µM, the TGI [5] was 41.3 µM and the TGI [6] was 9.01 µM. For the same compound, the TGI [7] was 5.92 µM, the TGI [8] was greater than 71.7 µM and the TGI [9] was 4.85 µM. It also gave a TGI [10] greater than 72.5 µM.

With `COc1ccccc1-n1c(-c2cc(O)ccc2C)cn2c3c(=O)[nH]c(=O)n(C)c3nc12` the GI50 [1] was 10.9 µM, the TGI [1] was greater than 100 µM and the GI50 [2] was greater than 100000 nM. It also gave a TGI [2] greater than 100 µM, a GI50 [3] of 60900 nM and a TGI [3] greater than 100 µM. The GI50 [4] was 66 µM, the TGI [4] was greater than 100 µM and the GI50 [5] was 4850 nM. It also gave a TGI [5] greater than 100 µM, a GI50 [7] of 7740 nM and a TGI [7] greater than 100 µM. The GI50 [8] was 10100 nM, the TGI [8] was greater than 100 µM and the GI50 [9] was 78700 nM. It also gave a TGI [9] greater than 100 µM, a GI50 [10] greater than 100 µM and a TGI [10] greater than 100 µM.

In the case of `CC(C)(C)NN=C1C(C)(C)C(=NNC(C)(C)C)C1(C)C`, the TGI [1] is reported as greater than 100 µM, the TGI [2] is reported as greater than 100 µM and the TGI [3] is reported as greater than 100 µM. It also gave a TGI [4] greater than 100 µM, a TGI [5] greater than 100 µM and a TGI [6] greater than 100 µM. The TGI [7] was greater than 100 µM, the TGI [9] was greater than 100 µM and the TGI [10] was greater than 100 µM.

Compound `NS(=O)(=O)c1cc2c(cc1Cl)NC(Cc1ccccc1)NS2(=O)=O` (stereo not given) has a TGI [1] greater than 100 µM, a TGI [2] greater than 100 µM and a TGI [3] greater than 100 µM. The TGI [4] was greater than 100 µM, the TGI [5] was greater than 100 µM and the TGI [6] was greater than 100 µM. The TGI [7] was greater than 100 µM, the TGI [8] was greater than 100 µM and the TGI [9] was greater than 100 µM. The TGI [10] was greater than 100 µM.

In the case of `C=C1C[C@](OC)([C@H](O)C(=O)N[C@@H](OC)[C@@H]2C[C@@H](O)C(C)(C)[C@@H](C[C@@H](COC)OC)O2)O[C@H](C)[C@@H]1C`, the GI50 [1] is reported as 0.00322 µM, the TGI [1] is reported as 0.0096 µM and the GI50 [2] is reported as 0.861 nM. The TGI [2] was 0.00339 µM, the GI50 [3] was 1.89 nM and the TGI [3] was 0.00544 µM. It also gave a TGI [4] greater than 1 µM, a GI50 [5] of 1.74 nM and a TGI [5] of 0.00638 µM. For the same compound, the GI50 [6] was 2.86 nM, the TGI [6] was 0.00889 µM and the GI50 [7] was 2.11 nM. The TGI [7] was 0.0102 µM, the GI50 [8] was 1.62 nM and the TGI [8] was 0.00667 µM. For the same compound, the GI50 [9] was 2.02 nM and the TGI [9] was 0.00582 µM.

In the case of `COC1=CC(O)(CC(N)=O)c2ccccc2C1=O` (stereo not given), the TGI [1] is reported as greater than 100 µM, the TGI [2] is reported as greater than 100 µM and the TGI [4] is reported as greater than 100 µM. The TGI [5] was greater than 100 µM, the TGI [6] was greater than 100 µM and the TGI [7] was greater than 100 µM. It also gave a TGI [8] greater than 100 µM, a TGI [9] greater than 100 µM and a TGI [10] greater than 100 µM.

For `COc1ccc(C2=NNC(=O)OC2c2ccccc2)cc1` (stereo not given), the TGI [1] was greater than 100 µM, the TGI [2] was greater than 100 µM and the TGI [3] was greater than 100 µM. It also gave a TGI [4] greater than 100 µM, a TGI [5] greater than 100 µM and a TGI [6] greater than 100 µM. It also gave a TGI [7] greater than 100 µM, a TGI [8] greater than 100 µM and a TGI [9] greater than 100 µM. The TGI [10] was greater than 100 µM.

With `CN1CCCNc2c(c(=O)c2=O)NCCCN(C)CCCNc2c(c(=O)c2=O)NCCCN(C)CCCNc2c(c(=O)c2=O)NCCCN(C)CCCNc2c(c(=O)c2=O)NCCCN(C)CCCNc2c(c(=O)c2=O)NCCCN(C)CCCNc2c(c(=O)c2=O)NCCCN(C)CCCNc2c(c(=O)c2=O)NCCC1` the GI50 [1] was 2.48 µM, the TGI [1] was 46.8 µM and the GI50 [2] was 3630 nM. The TGI [2] was 18 µM, the GI50 [4] was 12.1 µM and the TGI [4] was greater than 50 µM. The GI50 [5] was 1340 nM, the TGI [5] was 14.2 µM and the GI50 [7] was 4410 nM. The TGI [7] was 13.8 µM, the GI50 [8] was 5540 nM and the TGI [8] was 15.8 µM. For the same compound, the GI50 [9] was 8430 nM, the TGI [9] was 21.8 µM and the GI50 [10] was 3.51 µM. For the same compound, the TGI [10] was 31.2 µM.

In the case of `COc1ccc(Nn2c(SCC(=O)Nc3nc(-c4ccc(Cl)cc4)cs3)nc(C)c2C)cc1`, the GI50 [1] is reported as 4.82 µM, the TGI [1] is reported as greater than 100 µM and the GI50 [2] is reported as 1840 nM. For the same compound, the TGI [2] was 11.1 µM, the GI50 [3] was 1530 nM and the TGI [3] was greater than 100 µM. For the same compound, the GI50 [4] was 7.02 µM, the TGI [4] was greater than 100 µM and the GI50 [5] was 2300 nM. The TGI [5] was 7.52 µM, the GI50 [6] was 2420 nM and the TGI [6] was 7.8 µM. The GI50 [8] was 1920 nM, the TGI [8] was greater than 100 µM and the GI50 [9] was 3260 nM. The TGI [9] was greater than 100 µM, the GI50 [10] was 5.8 µM and the TGI [10] was greater than 100 µM.

In the case of `CCN(CC)c1cc(/C=C/c2ccc(OC)c(OC)c2)nc2cc(F)c(F)cc12`, the GI50 [1] is reported as 5.54 µM, the TGI [1] is reported as 80.8 µM and the GI50 [2] is reported as greater than 100000 nM. For the same compound, the TGI [2] was greater than 100 µM, the GI50 [3] was 4060 nM and the TGI [3] was 14 µM. It also gave a GI50 [4] of 3.15 µM, a TGI [4] of 12.3 µM and a GI50 [5] of 10700 nM. For the same compound, the TGI [5] was greater than 100 µM, the GI50 [6] was 1680 nM and the TGI [6] was 4.74 µM. It also gave a GI50 [7] of 2080 nM, a TGI [7] of 5.44 µM and a GI50 [9] of 2700 nM. It also gave a TGI [9] of 9.07 µM, a GI50 [10] of 22.1 µM and a TGI [10] greater than 100 µM.
